Assay results taken from ChEMBL document CHEMBL1201862, “PubChem BioAssay data set” (2004).
“And” between values parts separate entries of the source, which are not always exact repeats. Identical values can stand only once. The source made the active and inactive calls.

Columns and labels:
[1] = biological target: T1, Heat shock factor protein 1 (Mus musculus, UniProt P38532); assay: HSF1 potentiators in luciferase reporter cells, confirmation, cell-based, NIH3T3, luminescence, dose retest (AID 435004); format: functional;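 further: stress induced by proteasome inhibitor MG132 added 30 min after compound; luciferase reporter driven by HSF1 response element in NIH3T3 cells; actives raise luminescence as potentiators of the MG132 stress response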
T1 sequence (P38532 whole entry): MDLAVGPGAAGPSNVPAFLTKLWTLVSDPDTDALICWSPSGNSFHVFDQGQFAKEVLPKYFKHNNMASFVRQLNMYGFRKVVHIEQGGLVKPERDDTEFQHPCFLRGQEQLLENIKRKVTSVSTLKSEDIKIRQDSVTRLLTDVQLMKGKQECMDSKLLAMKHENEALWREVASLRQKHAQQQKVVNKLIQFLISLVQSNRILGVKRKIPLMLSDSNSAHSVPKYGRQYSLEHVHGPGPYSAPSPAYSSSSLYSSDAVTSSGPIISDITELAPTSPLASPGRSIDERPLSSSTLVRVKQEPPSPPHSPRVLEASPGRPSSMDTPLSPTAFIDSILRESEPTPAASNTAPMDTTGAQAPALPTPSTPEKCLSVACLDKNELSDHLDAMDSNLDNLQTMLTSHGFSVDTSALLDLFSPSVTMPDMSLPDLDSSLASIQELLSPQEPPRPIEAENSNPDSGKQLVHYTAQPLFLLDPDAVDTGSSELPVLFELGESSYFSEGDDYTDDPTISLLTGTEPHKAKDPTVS

[2] = biological target: Heat shock protein HSP 90-alpha (Homo sapiens, UniProt P07900); assay: Luminescence-based dose response biochemical high throughput screening assay for inhibitors of the Heat Shock Protein 90 (HSP90). [Related pubchem assays: 1831 (Summary AID.), 1846 (Confirmation screen.), 1789 (Primary screen.)]
Kallikrein-7 = Kallikrein-7 (Homo sapiens, UniProt P49862); assay: Fluorescence Intensity-based biochemical primary high throughput dose response assay to identify activators of kallikrein-7 (K7) zymogen.
Chain of Kallikrein-7 (P49862 whole entry): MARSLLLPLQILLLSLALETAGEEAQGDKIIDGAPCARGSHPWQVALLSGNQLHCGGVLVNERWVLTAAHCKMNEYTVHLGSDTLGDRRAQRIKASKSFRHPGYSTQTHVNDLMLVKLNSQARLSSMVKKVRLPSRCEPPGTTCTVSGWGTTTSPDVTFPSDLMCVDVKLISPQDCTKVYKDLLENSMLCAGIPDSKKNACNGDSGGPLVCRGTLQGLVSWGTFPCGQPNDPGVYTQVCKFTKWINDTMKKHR

[3] = biological target: Sphingosine 1-phosphate receptor 2 (Homo sapiens, UniProt O95136); assay: Dose Response Cell Based Assay for Agonists of the S1P2 Receptor. [Related pubchem assays: 729, 736, 843 ]; format: functional
Chain of Sphingosine 1-phosphate receptor 2 (O95136 whole entry): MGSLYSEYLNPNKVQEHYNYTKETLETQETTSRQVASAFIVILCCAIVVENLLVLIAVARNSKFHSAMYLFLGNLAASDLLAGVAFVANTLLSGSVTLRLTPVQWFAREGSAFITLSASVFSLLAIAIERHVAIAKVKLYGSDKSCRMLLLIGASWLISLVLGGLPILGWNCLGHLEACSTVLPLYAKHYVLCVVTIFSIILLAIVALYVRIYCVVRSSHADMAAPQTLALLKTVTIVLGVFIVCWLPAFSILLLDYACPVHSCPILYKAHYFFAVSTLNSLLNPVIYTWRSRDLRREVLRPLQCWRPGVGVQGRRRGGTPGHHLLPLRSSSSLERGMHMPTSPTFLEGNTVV

HEK293 [4] = assay: cells; format: functional, cell-based; details: Homo sapiens
[5] = biological target: T2, Nuclear receptor subfamily 0 group B member 1 (Homo sapiens, UniProt P51843); assay: Luminescence-based cell-based high throughput dose response assay for inhibitors of the orphan nuclear receptor subfamily 0, group B, member 1 (DAX1; NR0B1). [Related pubchem assays (depositor defined):AID504766, AID504790]; format: functional
T2 sequence (P51843 whole entry): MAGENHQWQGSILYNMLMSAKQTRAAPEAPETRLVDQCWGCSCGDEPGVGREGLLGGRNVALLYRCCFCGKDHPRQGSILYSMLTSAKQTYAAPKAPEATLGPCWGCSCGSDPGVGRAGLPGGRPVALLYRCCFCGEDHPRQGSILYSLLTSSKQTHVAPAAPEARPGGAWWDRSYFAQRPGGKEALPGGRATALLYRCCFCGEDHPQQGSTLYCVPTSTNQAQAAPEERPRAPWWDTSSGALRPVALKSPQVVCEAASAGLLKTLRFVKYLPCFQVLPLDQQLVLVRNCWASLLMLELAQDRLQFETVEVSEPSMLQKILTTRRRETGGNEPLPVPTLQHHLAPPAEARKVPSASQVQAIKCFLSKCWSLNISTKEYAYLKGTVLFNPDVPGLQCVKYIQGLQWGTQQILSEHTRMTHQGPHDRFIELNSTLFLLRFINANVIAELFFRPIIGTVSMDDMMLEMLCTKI

[6] = biological target: T3, Oxysterols receptor LXR-beta (Homo sapiens, UniProt P55055); format: functional, cell-based;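 further: Cell-based luminescence dose-response assay of agonist activity at LXR, run as a confirmatory counterscreen to a daf-12 agonist screen; HEK293 cells with Gal4-LXR fusion and GAL4-driven luciferase reporter; agonist potency from rising luciferase signal of a Gal4-LXR reporter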
T3 sequence (P55055 whole entry): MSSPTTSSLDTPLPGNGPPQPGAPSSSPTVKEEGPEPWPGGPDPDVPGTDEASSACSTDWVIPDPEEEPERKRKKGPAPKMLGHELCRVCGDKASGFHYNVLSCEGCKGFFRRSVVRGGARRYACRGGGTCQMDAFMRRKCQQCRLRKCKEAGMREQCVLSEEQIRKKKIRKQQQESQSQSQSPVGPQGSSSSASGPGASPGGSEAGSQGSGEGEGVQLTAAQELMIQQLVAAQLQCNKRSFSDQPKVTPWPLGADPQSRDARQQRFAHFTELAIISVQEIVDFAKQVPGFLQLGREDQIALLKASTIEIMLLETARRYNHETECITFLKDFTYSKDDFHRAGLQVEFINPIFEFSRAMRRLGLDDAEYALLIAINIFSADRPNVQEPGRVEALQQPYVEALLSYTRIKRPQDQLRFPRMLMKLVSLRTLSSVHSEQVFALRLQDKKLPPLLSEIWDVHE

HEK293 [7] = assay: NOD2 signaling inhibitors in MDP-stimulated cells, cell-based, uHTS, luminescence (AID 2001); format: functional; details: Homo sapiens
HEK293 [8] = assay: cells; format: functional, cell-based; details: Homo sapiens; remark: listed apart in the source
[9] = biological target: T4, Nucleotide-binding oligomerization domain-containing protein 1 (Homo sapiens, UniProt Q9Y239); assay: NOD1 signaling inhibitors, SAR follow-up, revised (AID 2333); format: functional
T4 sequence (Q9Y239 whole entry): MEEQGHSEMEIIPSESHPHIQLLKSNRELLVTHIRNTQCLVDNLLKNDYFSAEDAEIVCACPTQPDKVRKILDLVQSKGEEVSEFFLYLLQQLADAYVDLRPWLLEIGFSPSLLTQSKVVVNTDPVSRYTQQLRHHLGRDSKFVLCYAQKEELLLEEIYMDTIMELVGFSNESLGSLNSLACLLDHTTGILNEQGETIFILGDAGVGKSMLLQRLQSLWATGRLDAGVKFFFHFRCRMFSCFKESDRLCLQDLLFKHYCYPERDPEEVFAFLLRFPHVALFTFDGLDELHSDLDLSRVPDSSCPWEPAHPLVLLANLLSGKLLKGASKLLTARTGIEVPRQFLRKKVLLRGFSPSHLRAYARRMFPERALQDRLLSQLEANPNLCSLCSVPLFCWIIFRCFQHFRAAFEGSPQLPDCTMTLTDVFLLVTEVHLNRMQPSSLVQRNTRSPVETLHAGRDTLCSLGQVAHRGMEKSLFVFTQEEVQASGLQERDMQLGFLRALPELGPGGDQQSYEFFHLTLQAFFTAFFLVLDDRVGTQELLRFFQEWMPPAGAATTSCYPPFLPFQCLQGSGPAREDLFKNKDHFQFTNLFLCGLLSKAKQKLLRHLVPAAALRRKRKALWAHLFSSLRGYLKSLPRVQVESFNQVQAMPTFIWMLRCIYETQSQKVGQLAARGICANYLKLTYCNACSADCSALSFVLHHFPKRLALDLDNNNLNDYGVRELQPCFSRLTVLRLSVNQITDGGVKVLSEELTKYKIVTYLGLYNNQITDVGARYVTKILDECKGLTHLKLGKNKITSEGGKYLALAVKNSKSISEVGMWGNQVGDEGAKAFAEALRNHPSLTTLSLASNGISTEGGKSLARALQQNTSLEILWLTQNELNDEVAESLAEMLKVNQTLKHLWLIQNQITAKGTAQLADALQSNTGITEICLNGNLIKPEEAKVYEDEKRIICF

HEK293 [10] = assay: cells; details: Homo sapiens
[11] = biological target: Disintegrin and metalloproteinase domain-containing protein 17 (Homo sapiens, UniProt P78536); assay: ADAM17 protease inhibitors, dose response, counter-screen for ADAM10 exosite inhibitor project, biochemical, quenched FRET substrate (AID 743253)
Chain of Disintegrin and metalloproteinase domain-containing protein 17 (P78536 whole entry, the tested form may be a part): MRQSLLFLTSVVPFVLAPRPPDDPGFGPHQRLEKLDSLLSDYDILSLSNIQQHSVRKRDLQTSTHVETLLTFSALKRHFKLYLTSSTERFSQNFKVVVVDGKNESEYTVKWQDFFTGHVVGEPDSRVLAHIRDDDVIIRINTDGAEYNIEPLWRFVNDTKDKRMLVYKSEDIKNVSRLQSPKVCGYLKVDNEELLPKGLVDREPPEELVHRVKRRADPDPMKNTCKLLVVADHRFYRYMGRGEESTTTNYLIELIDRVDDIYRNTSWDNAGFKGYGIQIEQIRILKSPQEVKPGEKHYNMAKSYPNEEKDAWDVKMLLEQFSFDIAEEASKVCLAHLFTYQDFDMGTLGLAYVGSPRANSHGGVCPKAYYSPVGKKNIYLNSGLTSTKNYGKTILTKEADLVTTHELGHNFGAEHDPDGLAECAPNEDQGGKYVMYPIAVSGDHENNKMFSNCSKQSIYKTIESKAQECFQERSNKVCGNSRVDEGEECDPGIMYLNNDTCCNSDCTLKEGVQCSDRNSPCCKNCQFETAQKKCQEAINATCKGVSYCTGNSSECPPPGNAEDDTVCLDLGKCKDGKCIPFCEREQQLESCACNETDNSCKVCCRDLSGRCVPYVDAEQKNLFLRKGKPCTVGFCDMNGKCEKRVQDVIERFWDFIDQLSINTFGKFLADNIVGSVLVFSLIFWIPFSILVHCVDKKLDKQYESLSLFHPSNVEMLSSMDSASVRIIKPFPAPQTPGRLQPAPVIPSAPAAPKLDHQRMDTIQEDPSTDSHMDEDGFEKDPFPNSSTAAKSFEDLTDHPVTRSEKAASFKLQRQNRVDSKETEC

Tumor necrosis factor = Tumor necrosis factor (Homo sapiens, UniProt P01375); assay: TNFa-triggered NF-kB activation inhibitors, SAR follow-up, cell-based, revised (AID 2337); format: functional
Chain of Tumor necrosis factor (P01375 whole entry): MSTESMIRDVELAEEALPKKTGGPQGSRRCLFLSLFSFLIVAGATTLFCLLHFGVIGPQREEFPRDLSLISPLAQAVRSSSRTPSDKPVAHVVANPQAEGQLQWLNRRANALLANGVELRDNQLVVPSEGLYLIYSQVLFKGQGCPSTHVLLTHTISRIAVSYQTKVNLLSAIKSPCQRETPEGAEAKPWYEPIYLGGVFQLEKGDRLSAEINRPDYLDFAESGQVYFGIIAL

[12] = ADAM10 inhibitors, peptide cleavage, dose response, biochemical, QFRET (AID 743254);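 further: ADAM10 enzyme with the DM2 quenched FRET peptide as substrate; EDANS fluorescence gain as the protease cuts the substrate; inhibitor potency against ADAM10 proteolytic activity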
HEK293 [13] = assay: NOD1 signaling inhibitors, primary screen, cell-based, luminescence, uHTS (AID 1578); format: functional; details: Homo sapiens
HEK293 [14] = assay: cells; format: functional, cell-based; details: Homo sapiens; remark: listed apart in the source

CCC(=O)Nc1ccccc1C(=O)OCC(=O)c1ccccc1
EC50 [1]: 46.9 µM (active)
IC50 [2]: 2.13 µM (active)

O=C(Nc1ccc(NC(=O)c2cccs2)cc1)c1cccs1
EC50 (Kallikrein-7): > 69.5 µM (inactive)

Cc1cccc2cc(C(c3nnnn3CC3CCCO3)N3CCc4ccccc4C3)c(=O)[nH]c12 (stereo not drawn)
EC50 [3]: > 50 µM (not active)

COC(=O)NCCOC(=O)N(O)c1ccc(Br)cc1
IC50 [2]: 16.7 µM (not active)

Cc1ccc(O)c(-c2cc(-c3ccc(F)cc3)no2)c1
EC50 (cells): > 67.5 µM (inactive)
IC50 (HEK293 [4]): > 67.5 µM (inactive)
IC50 [5]: > 67.5 µM (inactive)
EC50 [6]: > 67.5 µM (inactive)

CCOc1ccc(NC(=O)c2ccc(CN3CCc4ccccc4C3)cc2)cc1
IC50 (HEK293 [7]): > 20 µM (inactive)
IC50 (HEK293 [8]): > 20 µM (inactive)
IC50 [9]: 1.79 µM (active) and 1.13 µM (active)
IC50 (HEK293 [10]): > 20 µM (inactive)
IC50 [11]: > 69.5 µM (inactive)
IC50 (Tumor necrosis factor): 6.05 µM (active) and 2.05 µM (active)
IC50 [12]: > 69.5 µM (inactive)
EC50 (HEK293 [13]): 0.79 µM (active)
IC50 (HEK293 [14]): 3.96 µM (active)
